Data reported in US20230321123A1, “INHIBITORS OF PSEUDOMONAS AERUGINOSA VIRULENCE FACTOR LasB” (Helmholtz-Zentrum Für Infektionsforschung GmbH, priority 2020, published 2023).
Like-named read-outs stand apart in the source and are kept apart here.

Molecular target: LasB (Pseudomonas aeruginosa, UniProt Q02RJ6)
Test: biochemical
Parameters: species or system P. aeruginosa

Sequence of LasB (Q02RJ6 198-498): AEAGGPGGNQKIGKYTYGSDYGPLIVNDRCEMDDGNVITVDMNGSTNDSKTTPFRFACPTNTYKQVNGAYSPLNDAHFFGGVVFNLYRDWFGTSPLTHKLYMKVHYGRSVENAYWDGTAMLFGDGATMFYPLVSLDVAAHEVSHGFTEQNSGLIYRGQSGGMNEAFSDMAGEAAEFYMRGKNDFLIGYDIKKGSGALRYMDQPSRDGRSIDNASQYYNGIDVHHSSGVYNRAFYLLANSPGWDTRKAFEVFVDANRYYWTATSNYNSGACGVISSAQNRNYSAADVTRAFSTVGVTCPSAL

Structure (SMILES)	IC50 (IC50 against LasB) [nM]	also measured
CC(C)CC(C(=O)Nc1ccc(S(=O)(=O)C(F)(F)F)cc1)P(=O)(O)O (stereo not shown) [Example 74]	28 ± 6	–
CC(C)CC(C(=O)NC12CC(C(=O)Nc3ccc(Cl)c(Cl)c3)(C1)C2)P(=O)(O)O (stereo not shown) [Example 151, (1-((3-((3,4-Dichlorophenyl)carbamoyl)bicyclo[1.1.1]pentan-1-yl)amino)-4-methyl-1-oxopentan-2-yl)phosphonic acid]	347 ± 12	–
CC(C)CC(C(=O)Nc1cccc2ccccc12)P(=O)(O)O (stereo not shown) [Example 75]	69 ± 8	–
CC(C)CC(C(=O)Nc1ccc(Cl)c(Cl)c1)n1ccnn1 (stereo not shown) [Example 175]	4300 ± 200	–
CC(C)CC(C(=O)Nc1ccc(NS(=O)(=O)c2ccc3c(c2)CN(C(=O)C(F)(F)F)CC3)cc1)P(=O)(O)O (stereo not shown) [Example 115]	57 ± 3	–
CC(C)CC(C(=O)Nc1ccc(NC(=O)c2ccc(Cl)c(Cl)c2)cc1)P(=O)(O)O (stereo not shown) [Example 118]	25 ± 1	–
CC(C)CC(C(=O)Nc1ccc(NC(=O)C(Cc2ccccc2)c2ccccc2)cc1)P(=O)(O)O (stereo not shown) [Example 120]	30 ± 1	–
CC(C)CC(C(=O)Nc1ccc(Cl)cn1)P(=O)(O)O (stereo not shown) [Example 82]	501 ± 39	–
CC(S)C(=O)Nc1ccc(Cl)c(Cl)c1 (stereo not shown) [Example 15]	4500 ± 700	–
CC(C)CC(C(=O)N[C@@H](C)C(=O)Nc1ccc(Cl)c(Cl)c1)P(=O)(O)O (stereo partly shown) [Example 153]	62 ± 2	–
O=C(Nc1ccc(Cl)c(Cl)c1)C(S)CC1CCCCC1 (stereo not shown) [Example 47]	–	IC50 (read-out: IC50 against LasB): 12000 ± 3000 nM
CC(C)CC(C(=O)N1CCN(c2ccc(Cl)cc2)CC1)P(=O)(O)O (stereo not shown) [Example 101]	1450 ± 30	–
Cc1cccc(NC(=O)C(S)Cc2ccccc2)c1 (stereo not shown) [Example 7]	980 ± 430	–
CC(C)CC(C(=O)N1CCN(Cc2ccc(-c3ccc(Cl)cc3)cc2)CC1)P(=O)(O)O (stereo not shown) [Example 150]	8660 ± 1110	–
CCC(S)C(=O)Nc1ccc(C(C)=O)cc1 (stereo not shown) [Example 20]	10000 ± 2000	–
COc1ccc(NC(=O)C(S)CC(C)C)cc1 (stereo not shown) [Example 34]	360 ± 110	–
CC(C)CC(C(=O)Nc1ccc(OCc2ccc(Cl)c(Cl)c2)cc1)n1ccnn1 (stereo not shown) [Example 176]	45600	–
COc1cccc(NC(=O)C(S)CC(C)C)c1 (stereo not shown) [Example 33]	560 ± 30	–
O=C(CP(=O)(O)O)Nc1ccc(-c2ccc(Cl)cc2)cn1 [Example 90]	–	inhibition of LasB (@ 50 μm): 31% inhibition @ 50 μm
COc1ccccc1NC(=O)C(S)CC(C)C (stereo not shown) [Example 32]	700 ± 40	–
COc1ccc(NC(=O)C(S)C(C)C)cc1 (stereo not shown) [Example 22]	16000 ± 1000	–
CC(C)CC(C(=O)Nc1cnc(Br)nc1)P(=O)(O)O (stereo not shown) [Example 87]	384 ± 2	–
CC(C)CC(C(=O)Nc1ccc(Br)nn1)P(=O)(O)O (stereo not shown) [Example 89]	7910 ± 390	–
O=C(Nc1ccccc1)C(S)Cc1ccc(O)c([N+](=O)[O-])c1 (stereo not shown) [Example 12]	–	IC50 (read-out: IC50 against LasB): 2500 ± 100 nM
O=C(Nc1ccc(C(F)(F)F)cc1)C(CC1CCCCC1)P(=O)(O)O (stereo not shown) [Example 81]	1870 ± 30	–
CC(C)C[C@H](C(=O)N[C@@H](Cc1cccnc1)C(=O)Nc1ccc(Cl)c(Cl)c1)P(=O)(O)O [Example 160]	573 ± 16	–
O=C(Nc1nc2ccccc2s1)C(S)Cc1ccccc1 (stereo not shown) [Example 55]	750 ± 70	–

Structure (SMILES)	IC50 (IC50 against LasB) [nM]	also measured
O=C(Nc1ccc(Cl)c(Cl)c1)C(S)CC1CC1 (stereo not shown) [Example 45]	–	IC50 (read-out: IC50 against LasB): 6300 ± 1200 nM
CC(C)CC(C(=O)N[C@@H](C(=O)Nc1ccc(Cl)c(Cl)c1)C(C)C)P(=O)(O)O (stereo partly shown) [Example 167]	11	–
Cc1ccccc1NC(=O)C(S)Cc1ccccc1 (stereo not shown) [Example 6]	–	IC50 (read-out: IC50 against LasB): 2400 ± 1000 nM
CC(=O)c1ccc(NC(=O)C(S)CC(C)C)cc1 (stereo not shown) [Example 39]	690 ± 340	–
CC(C)CC(C(=O)N[C@H](CC(=O)Nc1ccc(Cl)c(Cl)c1)C(C)C)P(=O)(O)O (stereo partly shown) [Example 168]	1760 ± 30	–
CC(C)CC(C(=O)N[C@H](c1ncc(-c2ccc(Cl)c(Cl)c2)[nH]1)C(C)C)P(=O)(O)O (mixture of isomers) [Example 171, (1-(((S)-1-(5-(3,4-dichlorophenyl)-1H-imidazol-2-yl)-2-methylpropyl)amino)-4-methyl-1-oxopentan-2-yl)phosphonic acid]	–	IC50 (IC50 against LasB (Table 16), heteropentacycles and benzannulated heteropentacycles): 6000 ± 200 nM
CC(C)CC(C(=O)Nc1ccc2ccccc2c1)P(=O)(O)O (stereo not shown) [Example 76]	64 ± 10	–
O=C(Nc1nc2ccccc2[nH]1)C(S)Cc1ccccc1 (stereo not shown) [Example 61]	7700 ± 1400	–
CCCCC(S)C(=O)Nc1ccc(OC)cc1 (stereo not shown) [Example 30]	2800 ± 300	–
CCC(C)C(S)C(=O)Nc1ccc(Cl)c(Cl)c1 (stereo not shown) [Example 43]	7500 ± 200	–
CC(C)C(S)C(=O)Nc1ccc(Cl)c(Cl)c1 (stereo not shown) [Example 21]	2500 ± 300	–
COc1ccc(NC(=O)C(CC(C)C)P(=O)(O)O)cc1 (stereo not shown) [Example 66]	52 ± 10	–
COc1ccc(NC(=O)C(S)CC2CC2)cc1 (stereo not shown) [Example 46]	3900 ± 600	–
CC(C)CC(S)C(=O)Nc1ccc(Cl)c(Cl)c1 (stereo not shown) [Example 31]	2600 ± 200	–
CCC(C)C(S)C(=O)Nc1ccc(OC)cc1 (stereo not shown) [Example 44]	17000 ± 2000	–
COc1ccc2nc(NC(=O)C(S)Cc3ccccc3)sc2c1 (stereo not shown) [Example 56]	950 ± 80	–
O=C(Nc1cccnc1)C(S)Cc1ccccc1 (stereo not shown) [Example 60]	–	IC50 (read-out: IC50 against LasB): 1200 ± 100 nM
COCC(S)C(=O)Nc1ccc(OC)cc1 (stereo not shown) [Example 50]	17000 ± 1000	–
CC(C)CC(C(=O)Nc1ccc(F)cc1)P(=O)(O)O (stereo not shown) [Example 70]	93 ± 22	–
CC(C)CC(C(=O)N[C@H](C(=O)Nc1ccc(Cl)c(Cl)c1)C1CCCCC1)P(=O)(O)O (stereo partly shown) [Example 156]	12	–
CC(C)CC(C(=O)Nc1ccc(Cl)nc1)P(=O)(O)O (stereo not shown) [Example 83]	1130 ± 20	–
CC(C)CC(C(=O)N[C@@H](Cc1ccccc1)C(=O)Nc1ccc(Cl)c(Cl)c1)P(=O)(O)O (stereo partly shown) [Example 157]	427 ± 48	–
CC(C)C[C@@H](C(=O)N[C@@H](Cc1cccnc1)C(=O)Nc1ccc(Cl)c(Cl)c1)P(=O)(O)O [Example 159]	1500 ± 60	–
CCCC(S)C(=O)Nc1ccccc1 (stereo not shown) [Example 24]	4800 ± 400	–
CC(C)CC(C(=O)Nc1ccc(C(N)=O)nc1)P(=O)(O)O (stereo not shown) [Example 84]	223 ± 16	–
CC(=O)c1ccc(NC(=O)C(S)C(C)C)cc1 (stereo not shown) [Example 23]	22000	–
CC[C@H](C)[C@H](NC(=O)C(CC(C)C)P(=O)(O)O)C(=O)Nc1ccc(Cl)c(Cl)c1 (stereo partly shown) [Example 154]	13 ± 1	–

Structure (SMILES)	IC50 (IC50 against LasB) [nM]	also measured
O=C(O)CC(S)C(=O)Nc1ccc(Cl)c(Cl)c1 (stereo not shown) [Example 54]	3900 ± 400	–
CC(C)CC(C(=O)Nc1ccc(Cl)c(Cl)c1)n1nccn1 (stereo not shown) [Example 178]	5500 ± 200	–
CC(C)CC(C(=O)N[C@H]1CCCN(Cc2ccc(Cl)cc2)C1)P(=O)(O)O (mixture of isomers) [Example 147, (1-(((S)-1-(4-Chlorobenzyl)piperidin-3-yl)amino)-4-methyl-1-oxopentan-2-yl)phosphonic acid]	5180 ± 530	–
CCC(S)C(=O)Nc1ccc(OC)cc1 (stereo not shown) [Example 19]	4200 ± 600	–
CC(C)CC(C(=O)N[C@@H](CC1CC1)C(=O)Nc1ccc(Cl)c(Cl)c1)P(=O)(O)O (stereo partly shown) [Example 164]	27 ± 1	–
COc1ccc(NC(=O)C(S)CC2CCCCC2)cc1 (stereo not shown) [Example 48]	2600 ± 1200	–
CC(C)CC(C(=O)Nc1ccc(Cl)nn1)P(=O)(O)O (stereo not shown) [Example 88]	18800 ± 740	–
CCCC(S)C(=O)Nc1ccc(C(C)=O)cc1 (stereo not shown) [Example 28]	2600 ± 500	–
Cc1ccc(CC(S)C(=O)Nc2ccccc2)cc1 (stereo not shown) [Example 13]	–	IC50 (read-out: IC50 against LasB): 2800 ± 300 nM
CC(C)C[C@H](C(=O)N[C@@H](Cc1ccccn1)C(=O)Nc1ccc(Cl)c(Cl)c1)P(=O)(O)O [Example 162]	416 ± 23	–
COC(=O)c1ccsc1NC(=O)C(S)Cc1ccccc1 (stereo not shown) [Example 59]	–	IC50 (read-out: IC50 against LasB): 8000 ± 1000 nM
COc1ccc(NC(=O)C(C)S)cc1 (stereo not shown) [Example 16]	45000 ± 1000	–
CC(C)CC(C(=O)N[C@@H](CC1CCCCC1)C(=O)Nc1ccc(Cl)c(Cl)c1)P(=O)(O)O (stereo partly shown) [Example 158]	242 ± 21	–
CC(C)CC(S)C(=O)Nc1ccc(Cl)cc1 (stereo not shown) [Example 38]	840 ± 240	–
CC(C)CC(C(=O)NC1CCN(c2ccc(Cl)cc2)CC1)P(=O)(O)O (stereo not shown) [Example 103]	1910 ± 110	–
CC(C)CC(C(=O)N1CCN(c2ncc(Br)cn2)CC1)P(=O)(O)O (stereo not shown) [Example 102]	35800 ± 1750	–
O=C(Nc1nc2ccc(Cl)cc2s1)C(S)Cc1ccccc1 (stereo not shown) [Example 57]	–	IC50 (read-out: IC50 against LasB): 2400 ± 200 nM
CC(=O)c1ccc(NC(=O)C(C)S)cc1 (stereo not shown) [Example 17]	89000 ± 9000	–
CC(C)C[C@@H](C(=O)N[C@@H](Cc1ccccn1)C(=O)Nc1ccc(Cl)c(Cl)c1)P(=O)(O)O [Example 161]	1360 ± 50	–
CC(C)CC(C(=O)Nc1ccc(C#N)cc1)P(=O)(O)O (stereo not shown) [Example 73]	25 ± 1	–
CCCC(S)C(=O)Nc1ccc(OC)cc1 (stereo not shown) [Example 27]	2400 ± 600	–
CC(C)CC(C(=O)Nc1ccc(Cl)cc1)P(=O)(O)O (stereo not shown) [Example 71]	48 ± 4	–
CC(C)CC(C(=O)Nc1ccc(OCc2ccc(Cl)c(Cl)c2)cc1)n1nccn1 (stereo not shown) [Example 179]	30000	–
CC(C)CC(S)C(=O)Nc1nc2ccccc2s1 (stereo not shown) [Example 62]	650 ± 140	–
COCC(S)C(=O)Nc1ccc(Cl)c(Cl)c1 (stereo not shown) [Example 49]	2400 ± 600	–
